According to ChEMBL document CHEMBL1909046, “DrugMatrix in vitro pharmacology data”:

Tests used:
[1] = DRUGMATRIX: Leukotriene, BLT (LTB4) radioligand binding (ligand: [3H]LTB4); format: cell membranes, Membrane; details: u-937; Not Active = under 50% inhibition at 10 µM
[2] = molecular target: T1, 5-hydroxytryptamine receptor 2C (Homo sapiens, UniProt P28335); assay: DRUGMATRIX: Serotonin (5-Hydroxytryptamine) 5-HT2C radioligand binding (ligand: [3H] Mesulergine); format: cell membranes, CHO-K1, Membrane; details: Not Active = under 50% inhibition at 10 µM
T1 sequence (P28335 whole entry): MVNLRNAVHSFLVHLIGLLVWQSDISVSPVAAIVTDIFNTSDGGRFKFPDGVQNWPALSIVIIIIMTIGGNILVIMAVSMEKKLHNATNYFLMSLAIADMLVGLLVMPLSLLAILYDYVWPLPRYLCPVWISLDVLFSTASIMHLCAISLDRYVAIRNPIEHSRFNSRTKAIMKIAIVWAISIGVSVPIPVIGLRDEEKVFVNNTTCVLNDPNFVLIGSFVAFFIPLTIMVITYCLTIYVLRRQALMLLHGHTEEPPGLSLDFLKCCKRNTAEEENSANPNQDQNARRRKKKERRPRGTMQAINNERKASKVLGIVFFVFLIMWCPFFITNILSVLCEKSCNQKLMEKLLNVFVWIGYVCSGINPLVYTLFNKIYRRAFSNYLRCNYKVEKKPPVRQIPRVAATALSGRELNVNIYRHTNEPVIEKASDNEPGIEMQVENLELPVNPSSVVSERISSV

[3] = molecular target: Platelet-activating factor receptor (Homo sapiens, UniProt P25105); format: tissue-based; note: in other assays of this panel Not Active means under 50% inhibition at 10 µM
Cytochrome P450 2A6 = molecular target: T2, Cytochrome P450 2A6 (Homo sapiens, UniProt P11509); details: bti-tn-5b1-4; note: in other assays of this panel Not Active means under 50% inhibition at 10 µM
T2 sequence (P11509 whole entry): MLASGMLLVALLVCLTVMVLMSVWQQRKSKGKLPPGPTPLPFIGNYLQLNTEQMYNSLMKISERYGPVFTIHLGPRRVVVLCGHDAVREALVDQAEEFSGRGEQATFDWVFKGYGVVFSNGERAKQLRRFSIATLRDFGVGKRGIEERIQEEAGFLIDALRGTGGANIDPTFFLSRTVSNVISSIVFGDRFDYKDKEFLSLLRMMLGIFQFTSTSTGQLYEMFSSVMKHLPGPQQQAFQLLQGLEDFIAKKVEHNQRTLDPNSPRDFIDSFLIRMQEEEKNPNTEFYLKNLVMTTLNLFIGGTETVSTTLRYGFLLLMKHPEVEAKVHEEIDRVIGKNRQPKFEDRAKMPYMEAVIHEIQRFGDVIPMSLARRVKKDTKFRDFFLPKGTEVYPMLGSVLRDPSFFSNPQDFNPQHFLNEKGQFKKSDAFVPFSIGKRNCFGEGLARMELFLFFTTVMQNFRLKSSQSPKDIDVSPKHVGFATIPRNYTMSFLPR

[4] = DRUGMATRIX: Atrial Natriuretic Factor (ANF) radioligand binding (ligand: [125I] ANF (rat)); format: cell membranes, Cavia porcellus, Dunkin-Hartley, Adrenal gland, Membrane; details: Not Active = under 50% inhibition at 10 µM
[5] = molecular target: T3, Muscarinic acetylcholine receptor M4 (Homo sapiens, UniProt P08173); format: cell membranes, CHO-K1, Membrane; note: in other assays of this panel Not Active means under 50% inhibition at 10 µM
T3 sequence (P08173 whole entry): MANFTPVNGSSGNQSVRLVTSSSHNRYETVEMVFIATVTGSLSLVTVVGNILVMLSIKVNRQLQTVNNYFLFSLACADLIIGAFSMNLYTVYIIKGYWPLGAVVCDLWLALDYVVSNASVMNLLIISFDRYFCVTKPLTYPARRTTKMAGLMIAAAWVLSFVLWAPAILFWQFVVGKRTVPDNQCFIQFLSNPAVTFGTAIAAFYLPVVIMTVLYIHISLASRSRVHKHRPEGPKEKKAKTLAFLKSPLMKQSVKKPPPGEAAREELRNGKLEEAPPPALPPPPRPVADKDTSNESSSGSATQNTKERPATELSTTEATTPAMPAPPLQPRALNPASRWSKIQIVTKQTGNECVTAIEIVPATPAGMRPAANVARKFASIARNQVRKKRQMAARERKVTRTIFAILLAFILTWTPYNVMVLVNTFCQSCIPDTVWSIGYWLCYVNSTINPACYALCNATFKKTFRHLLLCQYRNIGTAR

Sequence of Platelet-activating factor receptor (P25105 whole entry): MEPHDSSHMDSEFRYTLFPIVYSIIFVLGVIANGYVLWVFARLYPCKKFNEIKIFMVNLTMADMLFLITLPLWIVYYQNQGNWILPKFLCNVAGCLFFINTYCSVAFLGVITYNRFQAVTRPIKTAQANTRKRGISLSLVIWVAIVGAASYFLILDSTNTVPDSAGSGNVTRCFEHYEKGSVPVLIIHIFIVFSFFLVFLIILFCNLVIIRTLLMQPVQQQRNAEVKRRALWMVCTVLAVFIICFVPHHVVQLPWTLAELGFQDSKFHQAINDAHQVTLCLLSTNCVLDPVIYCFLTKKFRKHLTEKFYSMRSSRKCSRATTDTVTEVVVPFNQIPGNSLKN

Compound | IC50 [1] | Ki [1] | IC50 ([2]; cho-k1) | IC50 [3] | IC50 (Cytochrome P450 2A6) | Ki (Cytochrome P450 2A6) | IC50 [4] | Ki [4] | IC50 ([5]; cho-k1) | IC50 ([5]; read-out: IC50) | Ki ([5]; read-out: Ki) | IC50 ([2]; read-out: IC50) | Ki ([2]; read-out: Ki)
C[C@@H]1C[C@H]2[C@@H]3CCC4=CC(=O)C=C[C@]4(C)[C@@]3(F)[C@@H](O)C[C@]2(C)[C@@]1(O)C(=O)CO [DEXAMETHASONE] | Not Active | Not Active | Not Active | Not Active | Not Active | Not Active | Not Active | Not Active | Not Active |  |  |  | 
OC(CCCN1CCCCC1)(c1ccccc1)c1ccccc1 [DIPHENIDOL] | Not Active | Not Active | Not Active | Not Active | Not Active | Not Active | Not Active | Not Active |  | 0.271 µM | 0.038 µM |  | 
COc1cc([C@@H]2c3cc4c(cc3[C@@H](O[C@@H]3O[C@@H]5CO[C@@H](C)O[C@H]5[C@H](O)[C@H]3O)[C@H]3COC(=O)[C@H]23)OCO4)cc(OC)c1O [ETOPOSIDE] | Not Active | Not Active | Not Active | Not Active |  |  | Not Active | Not Active | Not Active |  |  |  | 
COc1ccc2c3c1O[C@H]1C[C@@H](O)C=C[C@@]31CCN(C)C2 [GALANTAMINE] | Not Active | Not Active | Not Active | Not Active |  |  | Not Active | Not Active | Not Active |  |  |  | 
CC(C)=CCC/C(C)=C/CO [GERANIOL] | Not Active | Not Active | Not Active | Not Active |  |  | Not Active | Not Active | Not Active |  |  |  | 
CC(=O)[C@@]1(O)CC[C@H]2[C@@H]3CCC4=CC(=O)CC[C@]4(C)[C@H]3CC[C@@]21C [HYDROXYPROGESTERONE] | Not Active | Not Active | Not Active | Not Active |  |  | Not Active | Not Active | Not Active |  |  |  | 
COC1=C(OC)C(=O)C(CCCCCCCCCCO)=C(C)C1=O [IDEBENONE] | Not Active | Not Active | Not Active | Not Active | Not Active | Not Active | Not Active | Not Active | Not Active |  |  |  | 
Cc1c(OCC(F)(F)F)ccnc1C[S+]([O-])c1nc2ccccc2[nH]1 (stereo not drawn) [LANSOPRAZOLE] | Not Active | Not Active | Not Active | Not Active | Not Active | Not Active | Not Active | Not Active | Not Active |  |  |  | 
CC(C)NCC(O)COc1cccc2[nH]ccc12 (stereo not drawn) [PINDOLOL] | Not Active | Not Active | Not Active | Not Active |  |  | Not Active | Not Active | Not Active |  |  |  | 
CCCNCC(O)COc1ccccc1C(=O)CCc1ccccc1 (stereo not drawn) [PROPAFENONE] | Not Active | Not Active |  | Not Active | Not Active | Not Active | Not Active | Not Active | Not Active |  |  |  | 
CC(C)c1cccc(C(C)C)c1O [PROPOFOL] | Not Active | Not Active |  | Not Active |  |  | Not Active | Not Active | Not Active |  |  | 11.6 µM | 6.05 µM
